Results: patent US20140271930A1, “NONINVASIVE METHOD FOR MEASURING METABOLITES FOR SKIN HEALTH” (priority 2013, published 2014)
Marks after values point to notes of the source that are not given here. Peptide text beside a SMILES is read from it.

Tested on: scalp of dandruff and non-dandruff subjects
Test: Metabolite expression profiling (LC/MS/MS, GC/MS/MS) of scalp D-Squame tape strip extracts: non-dandruff, dandruff baseline, dandruff after 3 weeks anti-dandruff shampoo
Type: in vivo, human
Conditions: for Fold Change Wk 3 Sel vs Dandruff Baseline / Fold Change Wk 3 ZPT vs Dandruff Baseline / Fold Change Wk 3 ZPT vs Non-Dan Baseline / Fold Change Wk 3 Sel vs Non-Dan Baseline: metabolite level in scalp tape strips; for Fold Change Wk 3 Sel vs Dandruff Baseline / Fold Change Wk 3 ZPT vs Dandruff Baseline: standardized to soluble protein; for Fold Change Wk 3 Sel vs Dandruff Baseline: dandruff subjects after 3 weeks 1% selenium sulfide shampoo vs own baseline; for Fold Change Wk 3 ZPT vs Dandruff Baseline: dandruff subjects after 3 weeks 1% zinc pyrithione shampoo vs own baseline; for Fold Change Wk 3 ZPT vs Non-Dan Baseline: dandruff subjects after 3 weeks 1% ZPT shampoo vs non-dandruff subjects; for Fold Change Wk 3 Sel vs Non-Dan Baseline: dandruff subjects after 3 weeks 1% selenium sulfide shampoo vs non-dandruff subjects
From the text: In an embodiment, the use of an adhesive device can be used to achieve such sampling. In preparation for such a sampling study for a dandruff sampling, at a baseline visit, a qualified screening grader will complete adherent scalp flaking score (ASFS) grading for each subject and the highest flaking octant will be identified for tape strip sampling. The highest flaking octant will be sampled at baseline and at various time points during and after treatment with product. Tape strips samples will be collected from each subject at each time point (e.g., baseline and week 3).
The tape strip sampling procedure is repeated additional times, as needed, at the same site placing each D-Squame® tape disc on top of the prior sampled area. The D-Squame® tapes after sample collection are placed into the appropriately labeled wells in a labeled plate.
Following the sampling, an extraction and quantitation procedure is conducted. In an embodiment of the present invention, quantitation of small molecules from extracts of D-Squame® Tape Samples can be conducted via analysis by either LC/MS/MS or GC/MS/MS. In this embodiment of the present invention, the sample extraction in preparation for Metabolite expression profiling technology was performed.
The D-Squame® tape sample plates are removed from −80° C. freezer where they are stored following sample collection, and placed on dry ice. The tape strips are inserted into pre-labeled polypropylene collection tubes, adhesive side facing inward. Extraction buffer containing methanol and water is added to each collection tube and then extracted on ice using sonication for 15 min. If necessary, additional tapes are placed in the collection tube containing the extract solution and the extraction process is repeated as a means of concentrating the sample. Each extract solution is isolated from the tape strip and an aliquot of each sample is placed into a pre-labeled polypropylene collection tubes and frozen at −80° C. for metabolite expression profiling analysis. A separate aliquot is specified for soluble protein analysis using a BCA™ Protein Assay Kit. For this analysis, the aliquot consisting of methanol and water is taken to dryness under a gentle stream of nitrogen. The sample is resuspended in an appropriate aqueous buffer (e.g., PBS/SDS (1× PBS+0.2% SDS) and analyzed for soluble protein.
The extracts are analyzed by GC/MS/MS and LC/MS/MS in positive and negative ion mode. Chromatographic separation followed by full scan mass spectra and MS/MS spectra is carried out to record and quantify all detectable ions present in the samples. Metabolites with known chemical structure can be identified by matching the ions' chromatographic retention index and mass spectra fragmentation signatures with reference library entries created from authentic standard metabolites under the identical analytical procedure as the experimental samples. Welch's Two Sample t-tests and matched-pair t-tests are used to analyze the data. […] The statistical analyses are performed on natural log-transformed data to reduce the effect of any potential outliers in the data. Welch's Two Sample t-test comparisons are made between the means of each biochemical from the various groups listed at the top of the tables and are calculated using either or both of the statistical analysis software programs: Array Studio (Omicsoft, Inc) or “R” from the Free Software Foundation, Inc.
Subjects are evaluated by a qualified grader to establish their scalp status. Dandruff subjects are identified by their level of visible flaking as assessed by a qualified grader. Non-dandruff healthy scalp subjects are evaluated at baseline to establish normalized levels of each biomarker. In this study, there are 60 non-dandruff subjects that are evaluated at baseline. […] They are evaluated at baseline, and after 3 weeks of product usage.

[1] = dandruff subjects after 3 weeks treatment with Sel shampoo, metabolite level in scalp tape strip extract
[2] = dandruff subjects after 3 weeks treatment with ZPT shampoo, metabolite level in scalp tape strip extract
[3] = relative metabolite level in scalp tape strips, dandruff subjects after 3 weeks 1% ZPT shampoo
[4] = relative metabolite level in scalp tape strips, dandruff subjects after 3 weeks 1% selenium sulfide shampoo

Molecule | Mean Values WEEK 3 TRT Sel [1] | Mean Values WEEK 3 TRT ZPT [2] | reduction / decrease of metabolite level vs dandruff baseline (after three weeks ZPT shampoo) [%] | decrease of metabolite level vs dandruff baseline (after three weeks selenium sulfide shampoo) [%] | Fold Change Wk 3 Sel vs Dandruff Baseline | Fold Change Wk 3 Sel vs Dandruff Baseline (listed as 13-HODE+9-HODE) [fold] | Fold Change Wk 3 ZPT vs Dandruff Baseline | Fold Change Wk 3 ZPT vs Dandruff Baseline (listed as 13-HODE+9-HODE) [fold] | Fold Change Wk 3 ZPT vs Non-Dan Baseline | Fold Change Wk 3 Sel vs Non-Dan Baseline | Mean Values WEEK 3 TRT ZPT [3] | Mean Values WEEK 3 TRT Sel [4]
CCCCCCCCCCCCCCCCC(=O)OCC(O)CO (stereo not shown) | 0.638 | 1.1274 | – | – | – | – | – | – | – | – | – | –
13- and 9-hydroxyoctadecadienoic acid [13-HODE + 9-HODE] | 0.4182 | 0.4413 | 74 | 66 | 0.34* fold | 0.34 | 0.26*** fold | 0.26 | 0.5*** fold | 0.48* fold | – | –
CCCCCCCCCCCCCCC(O)C(=O)O (stereo not shown) [2-hydroxypalmitate] | 0.6696 | 0.8231 | – | – | 0.57* fold | – | 1.04 fold | – | 0.6* fold | 0.49* fold | – | –
O=C(O)C(O)Cc1ccc(O)cc1 (stereo not shown) [3-(4-hydroxyphenyl)lactate] | 0.7878 | 0.7551 | – | – | 0.44* fold | – | 0.7*** fold | – | 0.8 fold | 0.84 fold | – | –
CC(C)CCC[C@@H](C)[C@H]1CC[C@H]2[C@@H]3[C@H](O)C=C4C[C@@H](O)CC[C@]4(C)[C@H]3CC[C@]12C [7-alpha-hydroxycholesterol] | 0.9662 | 0.959 | – | – | – | – | – | – | – | – | – | –
CCCCCCC=CCCCCCCCCC(=O)O [10-heptadecenoate (17:1n7), 10-heptadecenoate] | 0.4139 | 0.7411 | – | – | 0.33* fold | – | 0.67*** fold | – | 0.52*** fold | 0.29* fold | – | –
CCCCCCCCC=CCCCCCCCCC(=O)O [10-nonadecenoate (19:1n9), 10-nonadecenoate] | 0.1901 | 0.4088 | – | – | 0.14* fold | – | 0.31* fold | – | 0.38* fold | 0.17* fold | – | –
CC(C)CCCCCCCCCCCCCC(=O)O [15-methylpalmitate] | 0.3813 | 0.485 | – | – | 0.31* fold | – | 0.4* fold | – | 0.35* fold | 0.27* fold | – | –
CC(C)CCCCCCCCCCCCCCCC(=O)O [17-methylstearate] | 0.273 | 0.4446 | – | – | 0.21* fold | – | 0.36* fold | – | 0.35* fold | 0.22* fold | – | –
OC[C@@H](O)C(O)[C@H](O)CO [Arabitol] | – | – | – | – | 0.73 fold | – | 0.61* fold | – | 0.65 fold | 1.07 fold | – | –
O=C(O)c1ccccc1 [Benzoate] | – | – | – | – | 7.26**** fold | – | 2.02**** fold | – | 2.16**** fold | 4.26**** fold | – | –
NCCO [Ethanolamine] | 1.7285 | 0.976 | – | – | 1.63**** fold | – | 1.08 fold | – | 2.53**** fold | 4.49** fold | – | –
O=C(O)/C=C/C(=O)O [Fumarate] | – | – | – | – | 0.37*** fold | – | 0.53 fold | – | 0.68 fold | 0.76 fold | – | –
NCCCC(=O)O [Gamma-aminobutyrate (GABA), Gamma-aminobutyrate] | – | – | – | – | – | – | – | – | – | – | 0.1343 | 0.1888
N[C@@H](CCC(=O)N[C@@H](CCC(=O)O)C(=O)O)C(=O)O [Gamma-glutamylglutamate] | – | – | – | – | 0.95 fold | – | 1.89** fold | – | 2.09** fold | 1.11 fold | 1.7984 | 0.9586
N[C@@H](CCC(=O)O)C(=O)O [Glutamate] | – | – | – | – | – | – | – | – | – | – | 0.7627 | 1.0169
NCC(=O)O [Glycine] | – | – | – | – | – | – | – | – | – | – | 0.7968 | 0.8645
CC(C)CCC[C@@H](C)[C@H]1CC[C@H]2C3=CC[C@H]4C[C@@H](O)CC[C@]4(C)[C@H]3CC[C@]12C [Lathosterol] | 0.9469 | 0.7479 | – | – | – | – | – | – | – | – | – | –
CC(C)C[C@H](N)C(=O)N[C@@H](CCC(=O)O)C(=O)O [Leucylglutamate] (H-Leu-Glu-OH) | 0.9581 | 0.874 | – | – | 0.81* fold | – | 1.13 fold | – | 0.93 fold | 1.02 fold | – | –
CCCC/C=C\CCCCCCCC(=O)O [Myristoleate (14:1n5), Myristoleate] | 0.6261 | 0.8341 | – | – | 0.53*** fold | – | 0.8*** fold | – | 0.6* fold | 0.45* fold | – | –
Cn1cc(C(N)=O)ccc1=O [N1-Methyl-2-pyridone-5-carboxamide] | 0.8271 | 1.1768 | – | – | 0.89 fold | – | 1.57 fold | – | 0.76 fold | 0.54* fold | – | –
